Consider 22 molecules from PubChem BioAssay (NCI).

Test systems include SK-MEL-28 melanoma; SR leukemia; HOP-92 NSCLC; SW-620 colon; IGROV1 ovarian; NCI-H460 lung; PC-3 prostate; HL-60(TB) leukemia; A549 NSCLC; TK-10 renal.
Common to all, as to experiment: DTP human tumour cell line panel, 48 h

Each structure is given as a SMILES string.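 Exposure lasted 48 hours, with cells grown in 96-well plates and compounds tested at five concentrations. TGI: concentration producing complete growth inhibition.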

For `CC1C/C(=C\c2ccc(O)c(O)c2)C(=O)/C(=C/c2ccc(O)c(O)c2)C1` (stereo unspecified), the TGI in the assay with SK-MEL-28 melanoma worked out at 20.3 µM; in the assay with SR leukemia, 14 µM; with HOP-92 NSCLC, 18.7 µM; in the assay with SW-620 colon, 34.6 µM; with IGROV1 ovarian it was 19.8 µM; in the assay with NCI-H460 lung it was 32.2 µM. For the same molecule, the TGI with PC-3 prostate is 29.9 µM; in the assay with HL-60(TB) leukemia, 8.42 µM; with A549 NSCLC, 32.8 µM; with TK-10 renal, more than 100 µM.
Consider `COc1ccc(C2=C(N)c3cc(OC)ccc3C2=O)cc1`, for which the TGI with SK-MEL-28 melanoma, in the assay on SR leukemia, in the assay on HOP-92 NSCLC, in the assay with SW-620 colon, in the assay on IGROV1 ovarian and with NCI-H460 lung was more than 100 µM throughout. Moreover, the TGI in the assay on PC-3 prostate, in the assay with HL-60(TB) leukemia and with A549 NSCLC was more than 100 µM each time.
Take `O=C(Nc1ccccc1C(=O)O)C(=Cc1ccccc1O)NC(=O)c1ccccc1`: the TGI in the assay with SK-MEL-28 melanoma, with SR leukemia, in the assay on HOP-92 NSCLC, in the assay with SW-620 colon, with IGROV1 ovarian and in the assay with NCI-H460 lung was more than 100 µM throughout. Besides, the TGI in the assay with PC-3 prostate, with HL-60(TB) leukemia and with A549 NSCLC was more than 100 µM each time.
In the case of `CCOC(=O)CCC1(C(=O)O[C@@H]2C[C@H](C)CC[C@H]2C(C)C)CCCCC1=O` (stereo partly specified), the TGI in the assay with SK-MEL-28 melanoma, with SR leukemia, in the assay with HOP-92 NSCLC, in the assay on SW-620 colon, in the assay on IGROV1 ovarian and in the assay on NCI-H460 lung was more than 100 µM each time. Besides, the concentration for total growth inhibition (TGI) is more than 100 µM with PC-3 prostate, 57.6 µM in the assay with HL-60(TB) leukemia, more than 100 µM in the assay on A549 NSCLC and more than 100 µM in the assay on TK-10 renal.
With `CC1=NNC(N)=N/C1=C\C(Sc1ccc(Cl)cc1)c1ccc(Cl)cc1Cl` (stereo unspecified), the TGI in the assay on SK-MEL-28 melanoma was 55.7 µM; in the assay on SR leukemia, more than 100 µM; with HOP-92 NSCLC, more than 50.5 µM; with SW-620 colon, 59.9 µM; in the assay on IGROV1 ovarian, 21.9 µM; with NCI-H460 lung it was 29.3 µM. The TGI in the assay on PC-3 prostate worked out at 26.4 µM; in the assay on HL-60(TB) leukemia, 22.2 µM; in the assay with A549 NSCLC it was 59.4 µM; in the assay on TK-10 renal, 45.9 µM.
In the case of `C[C@@H]1CC(=O)[C@@]2(C)[C@](O)(CCC3O[C@]32C)[C@@]12CC(c1ccoc1)OC2=O` (stereo partly specified), the TGI was more than 100 µM with SK-MEL-28 melanoma; 68.5 µM in the assay with SR leukemia; more than 100 µM in the assay with SW-620 colon; more than 100 µM in the assay on IGROV1 ovarian; more than 100 µM in the assay with NCI-H460 lung; more than 100 µM with PC-3 prostate. In addition, the TGI with HL-60(TB) leukemia is 62.8 µM; in the assay with A549 NSCLC it was more than 100 µM; in the assay on TK-10 renal, more than 100 µM.
With `CCOC(=O)N1c2c(c3ccccc3n2C(=O)OCC)C(=O)C(OC)N1C(=O)OCC` (stereo unspecified), the TGI in the assay on SK-MEL-28 melanoma is 53.6 µM; in the assay on SR leukemia it was 45.1 µM; in the assay with HOP-92 NSCLC it was more than 100 µM; with SW-620 colon, more than 100 µM; with IGROV1 ovarian, more than 100 µM; in the assay with NCI-H460 lung, more than 100 µM. For the same molecule, the TGI in the assay on PC-3 prostate is 80.5 µM; in the assay on HL-60(TB) leukemia it was 49.8 µM; in the assay with A549 NSCLC, more than 100 µM; with TK-10 renal it was more than 100 µM.
For the molecule `COc1ccc(-c2nc3ncccn3c2-c2ccc(S(C)(=O)=O)cc2)cc1`, the TGI with SK-MEL-28 melanoma, with SR leukemia, with HOP-92 NSCLC, with SW-620 colon, in the assay on IGROV1 ovarian and in the assay with NCI-H460 lung was more than 100 µM each time. Further, the TGI in the assay with PC-3 prostate, in the assay with HL-60(TB) leukemia and in the assay on A549 NSCLC was more than 100 µM each time.
In the case of `Nc1nn2cc(-c3ccccc3)[n+](CC(=O)c3ccccc3)c2s1`, the TGI is 48 µM in the assay on SR leukemia; 35.4 µM with HOP-92 NSCLC; 55.9 µM with SW-620 colon; more than 100 µM with IGROV1 ovarian; more than 100 µM with NCI-H460 lung; more than 100 µM with PC-3 prostate. In addition, the TGI in the assay on HL-60(TB) leukemia, with A549 NSCLC and with TK-10 renal was more than 100 µM in each case.
Take `[O-][n+]1cc(SCc2ccccc2)ncc1SCc1ccccc1`: the TGI in the assay with SK-MEL-28 melanoma, in the assay with SR leukemia, in the assay on HOP-92 NSCLC, in the assay on IGROV1 ovarian, with NCI-H460 lung and in the assay on PC-3 prostate was more than 10 µM each time. Besides, the TGI in the assay on HL-60(TB) leukemia, with A549 NSCLC and with TK-10 renal was more than 10 µM in each case.
Regarding `CC(=O)c1c2c(cc3c1CCC3)CCC2`, the TGI in the assay with SK-MEL-28 melanoma, with SR leukemia, in the assay with SW-620 colon, with IGROV1 ovarian, in the assay with NCI-H460 lung and in the assay on PC-3 prostate was more than 100 µM in each case. Further, the TGI in the assay with HL-60(TB) leukemia, in the assay with A549 NSCLC and in the assay on TK-10 renal was more than 100 µM throughout.
`Cc1cc(=O)oc2c(CN(CCCl)CCCl)c(O)ccc12`: the TGI in the assay with SK-MEL-28 melanoma, in the assay on SR leukemia, with HOP-92 NSCLC, in the assay with SW-620 colon, with IGROV1 ovarian and in the assay with NCI-H460 lung was more than 100 µM throughout. The TGI in the assay on PC-3 prostate was more than 100 µM; in the assay on HL-60(TB) leukemia it was 27.4 µM; in the assay with A549 NSCLC, more than 100 µM.
As to `CO/C=C(/C(=O)OC)c1ccccc1[C@H]1C[C@@H]1c1ccccc1`, the TGI in the assay with SK-MEL-28 melanoma was 64.2 µM; with SR leukemia it was 76.5 µM; in the assay with HOP-92 NSCLC, 92.4 µM; in the assay on IGROV1 ovarian, 58.1 µM; in the assay with NCI-H460 lung, 88.6 µM; in the assay on PC-3 prostate, more than 100 µM. Moreover, the results for the TGI with HL-60(TB) leukemia, with A549 NSCLC and in the assay with TK-10 renal were 63.3 µM, 83.8 µM and more than 100 µM, respectively.
For the molecule `CC1CN=C(N(C(=O)Nc2ccccc2)C2CCCCC2)S1` (stereo unspecified), the TGI is 28.2 µM in the assay on SK-MEL-28 melanoma; 35.1 µM in the assay on SR leukemia; 28.5 µM in the assay on SW-620 colon; 35.6 µM with IGROV1 ovarian; 33.9 µM with NCI-H460 lung; 31.3 µM in the assay with PC-3 prostate. The TGI is 35.6 µM in the assay with HL-60(TB) leukemia, 34.2 µM in the assay on A549 NSCLC and 37 µM with TK-10 renal.
As to `N#CC(NNC(=O)c1c(Cl)c(Cl)c(Cl)c(Cl)c1-c1nc2ccc(C(=O)c3ccccc3)cc2[nH]1)c1cccc(Oc2ccccc2)c1` (stereo unspecified), the TGI is 74.1 µM in the assay on SK-MEL-28 melanoma; 54.4 µM in the assay with SR leukemia; 48.3 µM in the assay with HOP-92 NSCLC; more than 100 µM in the assay with SW-620 colon; 93.1 µM in the assay on IGROV1 ovarian; 54 µM in the assay with PC-3 prostate. Besides, the TGI in the assay with HL-60(TB) leukemia was 83.6 µM; with A549 NSCLC, more than 100 µM; with TK-10 renal, 95.1 µM.
`O=S1(=O)OCCOS(=O)(=O)C1S(=O)(=O)c1cccc2ccccc12`: the TGI in the assay on SK-MEL-28 melanoma, in the assay with SR leukemia, in the assay on HOP-92 NSCLC, in the assay with SW-620 colon, in the assay with IGROV1 ovarian and in the assay on NCI-H460 lung was more than 100 µM throughout. Moreover, the TGI in the assay with PC-3 prostate, with HL-60(TB) leukemia and with A549 NSCLC was more than 100 µM throughout.
`O=C(N(C1=CCCC1)N(c1ccccc1)c1ccccc1)C(F)(F)F`: the TGI with SK-MEL-28 melanoma is more than 100 µM; in the assay with SR leukemia, 90.4 µM; in the assay on HOP-92 NSCLC, 33.9 µM; in the assay with SW-620 colon, 66.8 µM; in the assay with NCI-H460 lung it was 35.7 µM; in the assay with PC-3 prostate, more than 100 µM. In addition, the total growth inhibition concentration (TGI) is 46.8 µM with HL-60(TB) leukemia, 98.4 µM in the assay on A549 NSCLC and more than 100 µM with TK-10 renal.
Regarding `C=C1CC2C[C@H](OS(=O)(=O)c3ccc(C)cc3)C(C1)N2C` (stereo partly specified), the TGI in the assay with SK-MEL-28 melanoma, with SR leukemia, in the assay on SW-620 colon, in the assay with IGROV1 ovarian, with NCI-H460 lung and with PC-3 prostate was more than 100 µM in each case. The TGI with HL-60(TB) leukemia, in the assay with A549 NSCLC and with TK-10 renal was more than 100 µM throughout.
For the molecule `C/C(=N\Nc1nc2ccccc2n1C)c1ccncn1`, the TGI in the assay on SK-MEL-28 melanoma is 0.168 µM; in the assay with SR leukemia, more than 100 µM; in the assay with HOP-92 NSCLC it was 2.64 µM; in the assay with SW-620 colon, more than 47.6 µM; in the assay on NCI-H460 lung it was more than 100 µM; in the assay on PC-3 prostate, more than 100 µM. Further, the TGI in the assay with HL-60(TB) leukemia is 0.0439 µM; with A549 NSCLC, more than 32 µM; in the assay with TK-10 renal, more than 100 µM.
`CCOC(=O)c1sc2[n+](c1C)C(=O)/C(=C/c1ccccc1Cl)S2`: the TGI was 47.3 µM with SK-MEL-28 melanoma; 17 µM in the assay on SR leukemia; 46.5 µM in the assay with SW-620 colon; 23.3 µM in the assay with IGROV1 ovarian; 6.44 µM in the assay on NCI-H460 lung; more than 85.6 µM in the assay with PC-3 prostate. For the same molecule, the results for the TGI with HL-60(TB) leukemia, in the assay with A549 NSCLC and in the assay with TK-10 renal were more than 62.9 µM, more than 56.8 µM and 57 µM, respectively.
`O=C1CSC2=NC3=C(COC/C3=C\c3ccc(F)cc3)C(c3ccc(F)cc3)N12` (stereo unspecified): the TGI in the assay with SR leukemia, in the assay on HOP-92 NSCLC, in the assay with SW-620 colon, in the assay with IGROV1 ovarian, in the assay with NCI-H460 lung and in the assay with PC-3 prostate was more than 100 µM throughout. Also, the TGI with HL-60(TB) leukemia was 34.5 µM; with TK-10 renal, more than 100 µM.
Consider `Clc1ccc(C2=NNC(c3cccc(Cl)c3)C2)cc1` (stereo unspecified), for which the TGI with SR leukemia was more than 100 µM; in the assay with HOP-92 NSCLC it was 38.2 µM; in the assay with SW-620 colon it was 74.9 µM; in the assay with IGROV1 ovarian, 5.07 µM; in the assay on NCI-H460 lung, more than 100 µM; in the assay with PC-3 prostate it was 97.4 µM. For the same molecule, the TGI was more than 100 µM with HL-60(TB) leukemia, more than 100 µM in the assay on A549 NSCLC and 79.9 µM in the assay on TK-10 renal.
